Experimental data as given in US6759429B2, “Pyrrole derivatives” (Sumitomo Pharmaceuticals Co., Ltd., priority 2000, dated 2004).

System: TGF-β
Experiment: Effects on the extracellular matrix production by TGF-β (proteoglycan production in fibroblast)
Format: cell-based
Conditions: Rattus norvegicus, NRK-49F cells, 3 ng/ml TGF-β, 24 h, [35S]-proteoglycan radioactivity, read-out: TGF-β inhibitory rate (%)
Protocol: Effects on the Extracellular Matrix Production by TGF-β The effect of the compounds of Examples on the production of proteoglycan when TGF-β was added to fibroblast was evaluated. NRK-49F cells (rat fibroblast) were cultured in Dulbecco's Modified Eagle Medium (DMEM: manufactured by GIBCO) containing 10% bovine serum, and used in this experiment. The cells were put into a 96-well plate in an amount of 2.5×10^4 cells/100 μl/well. On the next day, the medium in the plate was exchanged to the DMEM medium containing 3 ng/ml of TGF-β (manufactured by Nacalai Tesque, Inc.), 0.5 μCi/well of [^35S]-Na2SO4, and a test compound. […] The gel after electrophoresis was dried with a gel drier, and exposed to an imaging plate, which was analyzed with […] (manufactured by Fuji Photo Film). The radioactivity of proteoglycan to be electrophoresed was measured, and the TGF-β inhibitory rate was calculated by the following equation. TGF-β Inhibitory rate (%)=(A−B)×100/(A−C) A: Radioactivity in the presence of TGF-β without a test compound B: Radioactivity in the presence of TGF-β and a test compound C: Radioactivity in the absence of TGF-β and a test compound The TGF-β inhibitory rates (%) of the test compound at concentrations of 3 μM and 10 μM are shown in Table 1.

With `COC(=O)c1cc(Cl)ccc1/C=C/Cn1cccc1C(=O)c1ccc(O)cc1` [Example 103] the inhibition at 3 µM (test compound 3 μM) was 55% and the inhibition at 10 µM (test compound 10 μM) was 90%.
